# Patent US11970479B2, “3-(1H-pyrazol-4-yl)pyridine allosteric modulators of the M4 muscarinic acetylcholine receptor” (Merck Sharp & Dohme LLC, priority 2018, dated 2024)
# pEC50: −log10 of the molar value.
# Biological target: T1, human M4 muscarinic acetylcholine receptor (Homo sapiens, UniProt P08173)
# T1 construct: expressed in transfected cells
# T1 sequence (P08173 1-479): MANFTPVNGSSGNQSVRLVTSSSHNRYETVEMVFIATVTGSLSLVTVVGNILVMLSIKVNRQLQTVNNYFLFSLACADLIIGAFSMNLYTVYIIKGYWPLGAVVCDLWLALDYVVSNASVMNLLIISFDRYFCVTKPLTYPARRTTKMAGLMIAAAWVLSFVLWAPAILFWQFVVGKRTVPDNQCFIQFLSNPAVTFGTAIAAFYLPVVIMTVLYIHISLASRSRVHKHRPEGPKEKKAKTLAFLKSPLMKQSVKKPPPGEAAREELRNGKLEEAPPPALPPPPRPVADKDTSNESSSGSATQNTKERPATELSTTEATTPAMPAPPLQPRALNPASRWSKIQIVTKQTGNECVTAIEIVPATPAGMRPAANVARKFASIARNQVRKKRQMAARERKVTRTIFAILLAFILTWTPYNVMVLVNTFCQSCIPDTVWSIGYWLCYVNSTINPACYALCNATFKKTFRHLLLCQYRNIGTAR
# Assay: human FLIPR-based M4 PAM assay (CHO-K1 cells with human M4 receptor and Gαqi5, calcium dye fluorescence, EC20 acetylcholine)
# Format: cell-based
# Conditions: inflection point (IP) of the dose response curve, human M4 receptor/Gαqi5, acetylcholine at 20% of maximum response, read-out: M4PAM Hu IP
# Method: (§1) In a typical experiment the M4 muscarinic acetylcholine receptor modulating activity of the compounds of the present invention was determined in accordance with the following experimental method. CHO-K1 cells stably transfected with human M4 receptor and chimeric G-protein Gαqi5 (Coward P, et al., Analytical Biochemistry, 270:242-248 (1999)) are thawed from liquid N2 storage, resuspended in growth medium, plated in black, clear bottom 384 well plates, and incubated 16-20 hours at 37° C., 5% CO2. On the day of assay, growth medium is removed, the cells are washed 2 times with wash buffer, and cells are incubated in dye loading buffer at 37° C., 5% CO2 for ˜1 hour. Following dye loading the cell plates are placed in a FLIPR Tetra instrument and while monitoring dye fluorescence (excitation […]), 10 uL of test substance at increasing concentrations is added, and fluorescence values are recorded for 4 min. Next, 10 uL of acetylcholine is added (final concentration calculated so as to achieve 20% of the maximum acetycholine response), and the fluorescence reading is continued for 3.5 min. In some cases, a third addition of acetylcholine (final concentration calculated to achieve 70% of the maximal acetylcholine response) is performed. The resulting dose response curves are fit to a 4 parameter logistic equation and the final result is determined as the inflection point (IP) of the curve
# as §1, with “CHO-K1” for “In a typical experiment the M4 muscarinic acetylcholine receptor modulating activity of the compounds of the present invention was determined in accordance with the following experimental method. CHO-K1”, “Gαqi5” for “Gαqi5 (Coward P, et al., Analytical Biochemistry, 270:242-248 (1999))”, “performed.” for “performed. The resulting dose response curves are fit to a 4 parameter logistic equation and the final result is determined as the inflection point (IP) of the curve”
row,Compound,pEC50
1,"COc1cc2ccc(-c3nc(C)ccc3-c3cnn(CC4(C)CCOC4)c3)cc2nn1 (single isomer, unassigned) [Example 98, 3-methoxy-7-(6-methyl-3-{1-[(3-methyltetrahydrofuran-3-yl)methyl]-1H-pyrazol-4-yl}pyridin-2-yl)cinnoline]",7.24
2,"COc1cc2ccc(-c3nc(C)ccc3-c3cnn(CC4(C)CCOC4)c3)cc2nn1 (single isomer, unassigned) [Example 99, 3-methoxy-7-(6-methyl-3-{1-[(3-methyltetrahydrofuran-3-yl)methyl]-1H-pyrazol-4-yl}pyridin-2-yl)cinnoline]",6.77
3,"COc1cc2ccc(-c3ncccc3-c3cnn(CC4(C)CCCCC4)c3)cc2nn1 [Example 1, 3-methoxy-7-(3-{1-[(1-methylcyclohexyl)methyl]-1H-pyrazol-4-yl}pyridin-2-yl)cinnoline]",7.66
4,"Cc1ccc(-c2cnn(CCC(C)(C)F)c2)c(-c2ccc3cccnc3c2)n1 [Example 2, 7-(3-(1-(3-fluoro-3-methylbutyl)-1H-pyrazol-4-yl)-6-methylpyridin-2-yl)quinoline]",7.15
5,"COc1cc2ccc(-c3nc(C)ccc3-c3cnn(CCC(C)(C)F)c3)cc2nn1 [Example 3, 7-{3-[1-(3-fluoro-3-methylbutyl)-1H-pyrazol-4-yl]-6-methylpyridin-2-yl}-3-methoxycinnoline]",7.24
6,"Cc1ccc(-c2cnn(Cc3ccccc3)c2)c(-c2ccc3cccnc3c2)n1 [Example 4, 7-[3-(1-benzyl-1H-pyrazol-4-yl)-6-methylpyridin-2-yl]quinoline]",7.04
7,"COc1cc2ccc(-c3nc(C)ccc3-c3cnn(Cc4ccccc4)c3)cc2nn1 [Example 5, 7-[3-(1-benzyl-1H-pyrazol-4-yl)-6-methylpyridin-2-yl]-3-methoxycinnoline]",7.03
8,"Cc1ccc(-c2cnn(CC(C)(C)C)c2)c(-c2ccc3cccnc3c2)n1 [Example 6, 7-{3-[1-(2,2-dimethylpropyl)-1H-pyrazol-4-yl]-6-methylpyridin-2-yl}quinoline]",7.72
9,"Cc1ccc(-c2cnn(CC3(C)CCCCC3)c2)c(-c2ccc3cc(C(F)(F)F)cnc3c2)n1 [Example 7, 7-(6-methyl-3-{1-[(1-methylcyclohexyl)methyl]-1H-pyrazol-4-yl}pyridin-2-yl)-3-(trifluoromethyl)quinoline]",6.86
10,"COc1cc2ccc(-c3nc(C)ccc3-c3cnn(CC4CCC4)c3)cc2nn1 [Example 8, 7-{3-[1-(cyclobutylmethyl)-1H-pyrazol-4-yl]-6-methylpyridin-2-yl}-3-methoxycinnoline]",7.14
11,"Cc1ccc(-c2cnn(CC34CC(C3)C4)c2)c(-c2ccc3cccnc3c2)n1 [Example 9, 7-{3-[1-(bicyclo[1.1.1]pent-1-ylmethyl)-1H-pyrazol-4-yl]-6-methylpyridin-2-yl}quinoline]",7.68
12,"COc1cc2ccc(-c3nc(C)ccc3-c3cnn(CC45CC(C4)C5)c3)cc2nn1 [Example 10, 7-{3-[1-(bicyclo[1.1.1]pent-1-ylmethyl)-1H-pyrazol-4-yl]-6-methylpyridin-2-yl}-3-methoxycinnoline]",7.70
13,"Cc1ccc(-c2cnn(CCC(C)C(F)(F)F)c2)c(-c2ccc3cccnc3c2)n1 (stereo not drawn) [Example 11, 7-{6-methyl-3-[1-(4,4,4-trifluoro-3-methylbutyl)-1H-pyrazol-4-yl]pyridin-2-yl}quinoline]",7.05
14,"Cc1ccc(-c2cnn(CC34CC5CC(CC(C5)C3)C4)c2)c(-c2ccc3cccnc3c2)n1 [Example 12, 7-(3-(1-(((3r,5r,7r)-adamantan-1-yl)methyl)-1H-pyrazol-4-yl)-6-methylpyridin-2-yl)quinoline]",7.10
15,"COc1cc2ccc(-c3nc(C)ccc3-c3cnn(CC45CC6CC(CC(C6)C4)C5)c3)cc2nn1 [Example 13, 7-(3-(1-(((3r,5r,7r)-adamantan-1-yl)methyl)-1H-pyrazol-4-yl)-6-methylpyridin-2-yl)-3-methoxycinnoline]",7.43
16,"Cc1ccc(-c2cnn(CC34CCC(CC3)CC4)c2)c(-c2ccc3cccnc3c2)n1 [Example 14, 7-{3-[1-(bicyclo[2.2.2]oct-1-ylmethyl)-1H-pyrazol-4-yl]-6-methylpyridin-2-yl}quinoline]",7.70
17,"COc1cc2ccc(-c3nc(C)ccc3-c3cnn(CC45CCC(CC4)CC5)c3)cc2nn1 [Example 15, 7-{3-[1-(bicyclo[2.2.2]oct-1-ylmethyl)-1H-pyrazol-4-yl]-6-methylpyridin-2-yl}-3-methoxycinnoline]",7.85
18,"Cc1ccc(-c2cnn(CC3CCC(F)(F)CC3)c2)c(-c2ccc3cccnc3c2)n1 [Example 16, 7-(3-{1-[(4,4-difluorocyclohexyl)methyl]-1H-pyrazol-4-yl}-6-methylpyridin-2-yl)quinoline]",6.91
19,"COc1cc2ccc(-c3nc(C)ccc3-c3cnn(CC4CCC(F)(F)CC4)c3)cc2nn1 [Example 17, 7-(3-{1-[(4,4-difluorocyclohexyl)methyl]-1H-pyrazol-4-yl}-6-methylpyridin-2-yl)-3-methoxycinnoline]",7.25
20,"Cc1ccc(-c2cnn(CC3CCC(F)CC3)c2)c(-c2ccc3cccnc3c2)n1 (stereo not drawn) [Example 18, 7-(3-{1-[(4-fluorocyclohexyl)methyl]-1H-pyrazol-4-yl}-6-methylpyridin-2-yl)quinoline]",7.06
21,"COc1cc2ccc(-c3nc(C)ccc3-c3cnn(CC4CCC(F)CC4)c3)cc2nn1 (stereo not drawn) [Example 19, 7-(3-{1-[(4-fluorocyclohexyl)methyl]-1H-pyrazol-4-yl}-6-methylpyridin-2-yl)-3-methoxycinnoline]",7.37
22,"Cc1ccc(-c2cnn(Cc3ccccc3F)c2)c(-c2ccc3cccnc3c2)n1 [Example 20, 7-{3-[1-(2-fluorobenzyl)-1H-pyrazol-4-yl]-6-methylpyridin-2-yl}quinoline]",7.04
23,"COc1cc2ccc(-c3nc(C)ccc3-c3cnn(Cc4ccccc4F)c3)cc2nn1 [Example 21, 7-{3-[1-(2-fluorobenzyl)-1H-pyrazol-4-yl]-6-methylpyridin-2-yl}-3-methoxycinnoline]",7.21
24,"COc1cc2ccc(-c3nc(C)ccc3-c3cnn(CC4(C)CCC(F)(F)CC4)c3)cc2nn1 [Example 22, 7-(3-{1-[(4,4-difluoro-1-methylcyclohexyl)methyl]-1H-pyrazol-4-yl}-6-methylpyridin-2-yl)-3-methoxycinnoline]",7.80
25,"COc1cc2ccc(-c3nc(C)ccc3-c3cnn(CC4(C)CCCO4)c3)cc2nn1 (stereo not drawn) [Example 23, 3-methoxy-7-(6-methyl-3-{1-[(2-methyltetrahydrofuran-2-yl)methyl]-1H-pyrazol-4-yl}pyridin-2-yl)cinnoline]",6.95
26,"COc1cc2ccc(-c3nc(C)ccc3-c3cnn(CC4(C(F)(F)F)CCC4)c3)cc2nn1 [Example 24, 3-methoxy-7-[6-methyl-3-(1-{[1-(trifluoromethyl)cyclobutyl]methyl}-1H-pyrazol-4-yl)pyridin-2-yl]cinnoline]",6.82
27,"COc1cc2ccc(-c3nc(C)ccc3-c3cnn(CC4(C)CCC4)c3)cc2nn1 [Example 25, 3-methoxy-7-(6-methyl-3-{1-[(1-methylcyclobutyl)methyl]-1H-pyrazol-4-yl}pyridin-2-yl)cinnoline]",7.34
28,"COc1cc2ccc(-c3nc(C)ccc3-c3cnn(CC4(C)CC4)c3)cc2nn1 [Example 26, 3-methoxy-7-(6-methyl-3-{1-[(1-methylcyclopropyl)methyl]-1H-pyrazol-4-yl}pyridin-2-yl)cinnoline]",7.15
29,"N#Cc1ccc(-c2cnn(CC3(C(F)F)CC3)c2)c(-c2ccc3cccnc3c2)n1 [Example 27, 5-(1-{[1-(difluoromethyl)cyclopropyl]methyl}-1H-pyrazol-4-yl)-6-quinolin-7-ylpyridine-2-carbonitrile]",7.48
30,"COc1cc2ccc(-c3nc(C#N)ccc3-c3cnn(CC4(C(F)F)CC4)c3)cc2nn1 [Example 28, 5-(1-{[1-(difluoromethyl)cyclopropyl]methyl}-1H-pyrazol-4-yl)-6-(3-methoxycinnolin-7-yl)pyridine-2-carbonitrile]",7.36
